# Measurements reported in PubChem BioAssay (NCI).
#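 Tested at 5 concentrations; 48 h exposure; 96-well plates; endpoints linearly interpolated, else capped at highest concentration. TGI: concentration producing complete growth inhibition.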
# Assays:
# Experiment in all cases: NCI-60 cell line screen, 48 h
# 786-0 renal = tested on: 786-0 renal
# A498 renal = tested on: A498 renal
# A549 NSCLC = tested on: A549 NSCLC
# ACHN renal = tested on: ACHN renal
# BT-549 breast = tested on: BT-549 breast
# CAKI-1 renal = tested on: CAKI-1 renal
# CCRF-CEM leukemia = tested on: CCRF-CEM leukemia
# COLO 205 colon = tested on: COLO 205 colon
# DU-145 prostate = tested on: DU-145 prostate
# EKVX NSCLC = tested on: EKVX NSCLC
# HCC-2998 colon = tested on: HCC-2998 colon
# HCT-116 colon = tested on: HCT-116 colon
# HCT-15 colon = tested on: HCT-15 colon
# HL-60(TB) leukemia = tested on: HL-60(TB) leukemia
# HOP-62 NSCLC = tested on: HOP-62 NSCLC
# HOP-92 NSCLC = tested on: HOP-92 NSCLC
# HS 578T breast = tested on: HS 578T breast
# HT29 colon = tested on: HT29 colon
# IGROV1 ovarian = tested on: IGROV1 ovarian
# K-562 leukemia = tested on: K-562 leukemia
# KM12 colon = tested on: KM12 colon
# LOX IMVI melanoma = tested on: LOX IMVI melanoma
# M14 melanoma = tested on: M14 melanoma
# MALME-3M melanoma = tested on: MALME-3M melanoma
# MCF7 breast = tested on: MCF7 breast
# MDA-MB-231 breast = tested on: MDA-MB-231 breast
# MDA-MB-435 = tested on: MDA-MB-435
# MDA-N = tested on: MDA-N
# MOLT-4 leukemia = tested on: MOLT-4 leukemia
# NCI-H226 lung = tested on: NCI-H226 lung
# NCI-H23 lung = tested on: NCI-H23 lung
# NCI-H460 lung = tested on: NCI-H460 lung
# NCI-H522 lung = tested on: NCI-H522 lung
# NCI/ADR-RES ovarian = tested on: NCI/ADR-RES ovarian
# OVCAR-3 ovarian = tested on: OVCAR-3 ovarian
# OVCAR-4 ovarian = tested on: OVCAR-4 ovarian
# OVCAR-5 ovarian = tested on: OVCAR-5 ovarian
# OVCAR-8 ovarian = tested on: OVCAR-8 ovarian
# PC-3 prostate = tested on: PC-3 prostate
# RPMI-8226 leukemia = tested on: RPMI-8226 leukemia
# RXF 393 renal = tested on: RXF 393 renal
# SF-268 CNS = tested on: SF-268 CNS
# SF-295 CNS = tested on: SF-295 CNS
# SF-539 CNS = tested on: SF-539 CNS
# SK-MEL-2 melanoma = tested on: SK-MEL-2 melanoma
# SK-MEL-28 melanoma = tested on: SK-MEL-28 melanoma
# SK-MEL-5 melanoma = tested on: SK-MEL-5 melanoma
# SK-OV-3 ovarian = tested on: SK-OV-3 ovarian
# SN12C renal = tested on: SN12C renal
# SNB-19 CNS = tested on: SNB-19 CNS
# SNB-75 CNS = tested on: SNB-75 CNS
# SR leukemia = tested on: SR leukemia
# SW-620 colon = tested on: SW-620 colon
# T-47D breast = tested on: T-47D breast
# TK-10 renal = tested on: TK-10 renal
# U251 CNS = tested on: U251 CNS
# UACC-257 melanoma = tested on: UACC-257 melanoma
# UACC-62 melanoma = tested on: UACC-62 melanoma
# UO-31 renal = tested on: UO-31 renal
compound,measurement,setting,value
CCCCCC(/C=C/[C@@H]1CC(=O)C[C@H]1O[Si](C)(C)C(C)(C)C)OCOCCOC (some centres undefined),TGI,786-0 renal,14.3 µM
same,TGI,A498 renal,18.1 µM
same,TGI,A549 NSCLC,33.5 µM
same,TGI,ACHN renal,8.76 µM
same,TGI,BT-549 breast,11.7 µM
same,TGI,CAKI-1 renal,7.87 µM
same,TGI,CCRF-CEM leukemia,> 100 µM
same,TGI,COLO 205 colon,17.8 µM
same,TGI,DU-145 prostate,32.8 µM
same,TGI,EKVX NSCLC,23.7 µM
same,TGI,HCC-2998 colon,29.8 µM
same,TGI,HCT-116 colon,13.5 µM
same,TGI,HCT-15 colon,15.2 µM
same,TGI,HL-60(TB) leukemia,> 100 µM
same,TGI,HOP-62 NSCLC,31.7 µM
same,TGI,HOP-92 NSCLC,6.03 µM
same,TGI,HS 578T breast,8.04 µM
same,TGI,HT29 colon,10.1 µM
same,TGI,IGROV1 ovarian,9.48 µM
same,TGI,K-562 leukemia,6.43 µM
same,TGI,KM12 colon,8.96 µM
same,TGI,LOX IMVI melanoma,7 µM
same,TGI,M14 melanoma,19.5 µM
same,TGI,MALME-3M melanoma,5.32 µM
same,TGI,MCF7 breast,> 43.5 µM
same,TGI,MDA-MB-231 breast,14.7 µM
same,TGI,MDA-MB-435,4.64 µM
same,TGI,MDA-N,9.44 µM
same,TGI,MOLT-4 leukemia,4.97 µM
same,TGI,NCI-H226 lung,18.8 µM
same,TGI,NCI-H23 lung,12.9 µM
same,TGI,NCI-H460 lung,40.2 µM
same,TGI,NCI-H522 lung,4.01 µM
same,TGI,NCI/ADR-RES ovarian,10.5 µM
same,TGI,OVCAR-3 ovarian,11.3 µM
same,TGI,OVCAR-4 ovarian,26.3 µM
same,TGI,OVCAR-5 ovarian,28.8 µM
same,TGI,OVCAR-8 ovarian,18.3 µM
same,TGI,PC-3 prostate,14.1 µM
same,TGI,RPMI-8226 leukemia,6.42 µM
same,TGI,RXF 393 renal,5.45 µM
same,TGI,SF-268 CNS,10.5 µM
same,TGI,SF-295 CNS,25.5 µM
same,TGI,SF-539 CNS,5.98 µM
same,TGI,SK-MEL-2 melanoma,12.6 µM
same,TGI,SK-MEL-28 melanoma,10.5 µM
same,TGI,SK-MEL-5 melanoma,9.33 µM
same,TGI,SK-OV-3 ovarian,32 µM
same,TGI,SN12C renal,24.1 µM
same,TGI,SNB-19 CNS,12.9 µM
same,TGI,SNB-75 CNS,11.5 µM
same,TGI,SR leukemia,6.37 µM
same,TGI,SW-620 colon,> 28.1 µM
same,TGI,T-47D breast,44 µM
same,TGI,TK-10 renal,26.3 µM
same,TGI,U251 CNS,8.08 µM
same,TGI,UACC-257 melanoma,11 µM
same,TGI,UACC-62 melanoma,7.64 µM
same,TGI,UO-31 renal,6.44 µM
